Laboratory results published in patent US5614512A, “20-Oxo-pregnacalciferol analogs with binding affinity to the progesterone receptor” (Wisconsin Alumni Research Foundation, priority 1995, dated 1997).

Columns and labels:
calcium homeostasis = conditions: in animals and humans; cited from earlier work
[1] = U.S. Pat. No. 5,397,776; cited from earlier work
[2] = system: progesterone receptor (PR); conditions: U.S. Pat. No. 5,397,776; cited from earlier work
vitamin D receptor = conditions: U.S. Pat. No. 5,397,776; cited from earlier work
progesterone receptor = biological target: T1, progesterone receptor (Homo sapiens, UniProt P06401); assay: Competitive binding of test compounds vs 3H-R5020 to the progesterone receptor (MCF-7 cytosol); conditions: for Total Binding (DPM) ± S.D.: 3H-R5020 (20 nM) bound; for Total Binding (DPM) ± S.D. / inhibition: competitor at 400× fold excess, 12-14 hours on ice; for binding to the PR (in words): compared with 20-oxopregnacalciferol where stated; for inhibition: of 3H-R5020 (20 nM) binding
T1 construct: The source of the progesterone receptor is the cytosolic fraction of MCF-7 cells (human breast cancer cell line); endogenous in cells; host or cells: MCF-7 cells (human breast adenocarcinoma), cytosolic fraction, 10 nM estradiol for 24 h before harvest
T1 sequence (P06401 1-933): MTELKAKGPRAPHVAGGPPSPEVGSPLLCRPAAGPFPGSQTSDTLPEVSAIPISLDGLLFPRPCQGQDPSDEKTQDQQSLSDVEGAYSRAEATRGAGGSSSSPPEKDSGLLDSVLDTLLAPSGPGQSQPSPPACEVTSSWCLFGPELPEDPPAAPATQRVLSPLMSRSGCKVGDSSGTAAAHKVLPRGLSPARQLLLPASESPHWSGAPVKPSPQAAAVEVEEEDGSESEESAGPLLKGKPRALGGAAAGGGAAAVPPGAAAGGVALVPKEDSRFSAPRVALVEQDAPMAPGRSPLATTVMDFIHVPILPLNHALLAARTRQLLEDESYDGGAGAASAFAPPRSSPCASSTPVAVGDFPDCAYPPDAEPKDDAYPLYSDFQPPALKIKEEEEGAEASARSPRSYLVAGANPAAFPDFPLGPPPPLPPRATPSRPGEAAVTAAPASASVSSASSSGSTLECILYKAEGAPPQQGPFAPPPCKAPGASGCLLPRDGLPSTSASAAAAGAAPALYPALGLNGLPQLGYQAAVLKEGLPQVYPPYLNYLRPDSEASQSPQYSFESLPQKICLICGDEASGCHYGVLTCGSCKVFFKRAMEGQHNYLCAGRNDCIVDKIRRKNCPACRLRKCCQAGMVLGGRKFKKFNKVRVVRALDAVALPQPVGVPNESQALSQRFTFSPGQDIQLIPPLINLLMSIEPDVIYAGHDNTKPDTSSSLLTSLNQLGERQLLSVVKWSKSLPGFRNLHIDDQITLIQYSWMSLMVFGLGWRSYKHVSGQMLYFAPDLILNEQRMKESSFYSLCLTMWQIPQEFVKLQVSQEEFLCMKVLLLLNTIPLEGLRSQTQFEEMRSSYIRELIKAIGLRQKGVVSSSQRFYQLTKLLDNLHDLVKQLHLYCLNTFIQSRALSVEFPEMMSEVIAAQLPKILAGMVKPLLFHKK
Protocol: Cell culture and extract preparation: Human Breast Adenocarcinoma cells (MCF-7 cells) extract is used as the progesterone receptor source. The cells were grown to confluency in phenol red-free DMEM with 10% calf serum. After replacing the medium, the cells were dosed with 10 nM Estradiol and incubated for an additional 24 hours to induce the expression of the progesterone receptor. The cells were washed with Hanks Balanced Salt Solution (HBSS: 5.0 mM KCl, 0.3 mM KH2 PO4, 138 mM NaCl, 4.0 mM NaHCO3, 0.3 mM Na2HPO4, 5.6 mM D-Glucose, 1.3 mM CaCl2 and 0.5 mM MgCl2.6H2O) and then incubated with Ca/Mg-free HBSS+1 mM EDTA for 5-10 minutes at 37° C. After harvesting, the cells were pelleted by centifugation for 5.0 minutes at 4.0° C. The cell pellet was then resuspended in TDG buffer (10 mM Tris-HCl, pH 7.4, 0.5 mM DTT and 50% Glycerol) and sonicated for 15 seconds. The cytosolic fraction was obtained by centrifugation at 50,000 RPM for 20 minutes in TLA 100.2 rotor. The supernatent (cytosol) was removed and stored on ice for use in the binding assay. The Cytosolic fraction was always prepared fresh. Binding Assay: The ability of the test compounds to compete for binding to the progesterone receptor was tested as follows: 1--The incubation mix consisted of the following: 100 μl 3H-R5020 (20 nM) 5 μl Ethanol or test compound in the ethanol providing a 400 fold excess of compound 100 μl MCF-7 Cell Extract 2--The mixture was incubated 12-14 hours on ice. 3--250 μl of 50% HAP slurry was added+3 mL of TDG buffer. 4--The samples are allowed to sit on ice for 30 minutes with vortexing every 10 minutes. 5--The HAP was pelleted by centrifugation at 1500 rpms for 3 minutes. 6--The pellet was washed three more times with TDG buffer. 7--The final pellet was resuspended in 1 ml Ethanol, vortexed and allowed to sit at room temperature for 30 minutes with vortexing every 10 minutes. 8--The samples were finally centrifuged at 2000 rpms. The supernatent was removed, mixed with counting fluid and the amount of radioactivity in each sample was determined by counting in a beta scintillation counter. 1--The source of the progesterone receptor is the cytosolic fraction of MCF-7 cells (human breast cancer cell line) which were dosed with Estradiol 24 hours prior to harvesting and processing. 2--The cytosolic fractions used in all the binding measurements were freshly prepared. No frozen extracts were used. 3--All competitive compounds were added at 400× fold excess of the labelled R5020.

progesterone = conditions: Teutsch et al, U.S. Pat. No. 4,386,085; cited from earlier work
glucocorticosteroid = conditions: Teutsch et al, U.S. Pat. No. 4,386,085; cited from earlier work
pregnancy = conditions: used in conjunction with synthetic prostaglandins; cited from earlier work

Total Binding (DPM) ± S.D. (progesterone receptor)	inhibition (progesterone receptor)	Structure (SMILES)	binding to the PR (in words) (progesterone receptor)	also measured
–	–	C=C1/C(=C\C=C2/CCC[C@]3(C)[C@@H]([C@H](C)/C=C/[C@H](C)C(C)(C)O)CC[C@@H]23)C[C@@H](O)C[C@@H]1O [1α,25-dihydroxyvitamin D2]	–	regulation of calcium homeostasis (in words) (calcium homeostasis): highly potent regulators of calcium homeostasis
–	–	C=C1/C(=C\C=C2/CCC[C@]3(C)[C@@H]([C@H](C)CCCC(C)(C)O)CC[C@@H]23)C[C@@H](O)C[C@@H]1O [1α,25-dihydroxyvitamin D3]	–	regulation of calcium homeostasis (in words) (calcium homeostasis): highly potent regulators of calcium homeostasis
–	–	C=C1/C(=C\C=C2/CCC[C@]3(C)[C@@H](C(C)=O)CC[C@@H]23)C[C@@H](O)C[C@@H]1O [1α-hydroxy-20-oxopregnacaliciferol]	–	calcemic activity (in words) [1]: None of the above three compounds had any calcemic activity; binding to the PR (in words) [2]: prevents binding to the PR; binding to the vitamin D receptor (in words) (vitamin D receptor): nor did they bind to the vitamin D receptor
4139 ± 62 DPM	13%	C[C@H](CO)[C@H]1CC[C@H]2/C(=C/C=C3CCCCC3)CCC[C@]12C [4a, 19-Nor-3-desoxy-22-hydroxy-homopregnacalciferol]	did also bind to the PR	–
2881 ± 152 DPM	40%	C[C@H](CO)[C@H]1CC[C@H]2/C(=C/C=C3CCC4(CC3)OCCO4)CCC[C@]12C [4b, 19-Nor-3-desoxy-2-ethylene ketal-22-hydroxyhomopregnacalciferol]	did also bind to the PR but to a lesser degree	–
3045 ± 90 DPM	36%	C[C@H](C=O)[C@H]1CC[C@H]2/C(=C/C=C3CCCCC3)CCC[C@]12C [5a, 19-Nor-3-desoxy-homopregnacalciferol 22-aldehyde]	did also bind to the PR	binding to the PR, times more than the 20-ketone 6a (progesterone receptor; compared with 20-ketone 6a): 1.5 times
2546 ± 120 DPM	47%	C[C@H](C=O)[C@H]1CC[C@H]2/C(=C/C=C3CCC4(CC3)OCCO4)CCC[C@]12C [5b, 19-Nor-3-desoxy-2-ethylene ketal-homopregnacalciferol 22-aldehyde]	did also bind to the PR but to a lesser degree	–
3616 ± 171 DPM	24%	CC(=O)[C@H]1CC[C@H]2/C(=C/C=C3CCCCC3)CCC[C@]12C [6a, 19-Nor-3-desoxy-20-oxopregnacalciferol]	–	binding to the PR, lesser degree than 20-oxopregnacalciferol (progesterone receptor; compared with previously synthesized 20-oxopregnacalciferol): 40%
2531 ± 165 DPM	47%	CC(=O)[C@H]1CC[C@H]2/C(=C/C=C3CCC4(CC3)OCCO4)CCC[C@]12C [6b, 19-Nor-3-desoxy-2-ethylene ketal-20-oxopregna-calciferol]	did also bind to the PR but to a lesser degree	–
2036 ± 133 DPM	58%	CC(=O)[C@H]1CC[C@H]2/C(=C/C=C3CCC(=O)CC3)CCC[C@]12C [6c, 19-Nor-3-desoxy-2,20-dioxopregnacalciferol]	almost the same binding activity to the PR	–
–	–	CC(=O)[C@H]1CC[C@H]2/C(=C/C=C3C[C@@H](O)C[C@H](O)C3)CCC[C@]12C [19-nor-1α-hydroxy-20-oxopregnacalciferol]	–	calcemic activity (in words) [1]: None of the above three compounds had any calcemic activity; binding to the PR (in words) [2]: prevents binding to the PR; binding to the vitamin D receptor (in words) (vitamin D receptor): nor did they bind to the vitamin D receptor
1950 ± 170 DPM	59%	C=C1CC[C@H](O)C/C1=C/C=C1\CCC[C@]2(C)[C@@H](C(C)=O)CC[C@@H]12 [20-oxopregnacalciferol, 20-oxo-pregnacalciferol]	–	calcemic activity (in words) [1]: None of the above three compounds had any calcemic activity; binding to the PR (in words) [2]: did bind to the PR; binding to the vitamin D receptor (in words) (vitamin D receptor): nor did they bind to the vitamin D receptor
750 ± 231 DPM	–	CCC(=O)[C@@]1(C)CC[C@H]2[C@@H]3CCC4=CC(=O)CCC4=C3CC[C@@]21C [R5020, reference compound]	–	–
–	–	CC#C[C@]1(O)CC[C@H]2[C@@H]3CCC4=CC(=O)CCC4=C3[C@@H](c3ccc(N(C)C)cc3)C[C@@]21C [RU 486]	–	antiprogesterone activity (in words) (progesterone): strong; antiglucocorticosteroid activity (in words) (glucocorticosteroid): strong; termination of pregnancy (in words) (pregnancy): terminates pregnancy
